In patent publication US9408811B2, “Pharmaceutical composition comprising guttiferone F for the treatment of prostate cancer” (Hong Kong Baptist University, priority 2013, dated 2016):

How the values were obtained:
PC3 cells [1] = assay: PC3 xenograft nude mouse model A, intratumoral injection; format: in vivo, nude mice; conditions: intratumoral injection every two days for 20 days; 20 μM 3 times, then 100 μM; FIG. 4, p<0.05
Experimental: A total of 1×10^6 PC3 cells suspended in 100 μl of PBS and 100 μl of Matrigel (BD Biosciences, Bedford, Mass.) are inoculated subcutaneously (s.c.) into the right flank of six 4-week-old male nude mice. Drug injections are made once the tumors reach an average volume of about 100 mm^3. Mice are divided randomly into two groups of 3 mice in each group and subjected to intratumoral injection of vehicle (control) or […] Guttiferone F every two days for 20 days. (After 20 μM GF for 3 times, the dosage is increased to 100 μM GF). Tumor volume is measured by calipers and calculated by V=L×W^2/2 at different time intervals. For intratumoral injection, […] Guttiferone F is prepared in 5% dimethyl sulfoxide, 5% tween 80, and 90% PBS.

PC-3 = assay: MTT cytotoxic assay, PC-3; format: cell-based; conditions: Homo sapiens, 48 h of treatment
Experimental: (§1) Two human prostate cancer cell lines LNCaP and PC3 are maintained in RPMI1640 (Sigma Chemical Company, St. Louis, Mo., USA) supplemented with 10% fetal bovine serum (HyClone). Hepatocellular carcinoma cell line Hep G2, epithelial cervical cancer cell line HeLa and nasopharyngeal carcinoma cell line CNE are maintained in DMEM (Invitrogen) supplemented with 10% new-born calf serum (Gibco), 100 U/ml penicillin and 100 μg/ml streptomycin (Invitrogen). All cancer cells are maintained in a humidified atmosphere containing 5% CO2 at 37° C.
(§2) Different cancer cells are seeded in a 96-well plate and pre-incubated for 24 hours before treatment with Guttiferone F (0-50 μM). After 48 h of treatment, 10 μl of MTT solution (5 mg/ml) (Sigma Chemical Company, St. Louis, Mo., USA) are added to each well and incubated for 4 h. The resulting crystals are dissolved in DMSO. The controls include native cells and medium only. The spectrophotometric absorbance at 570 nm is measured using a microplate reader (Synergy HT, Bio-Tek Instruments Inc., Winooski, Vt., USA). The percentage cytotoxicity is calculated by the formula: Percentage cytotoxicity (cell death)=[1-(absorbance of experimental wells/absorbance of control wells)]×100%.

HeLa = assay: MTT cytotoxic assay, HeLa; format: cell-based; conditions: Homo sapiens, 48 h of treatment
Experimental: as §1, §2

LNCaP cells [2] = assay: Flow cytometry (PI, FACS) sub-G1 apoptosis; format: cell-based, human; conditions: 10 μM, serum-free medium, 24 h and 48 h
Experimental: Based on the result of the above MTT assay on prostate cancer cell lines, LNCaP cells and 10 μM of Guttiferone F are selected for studying the effect of Guittiferone F on apoptosis of human prostate cancer cells. Before that, LNCaP cells are treated with Guttiferone F at the concentration of 10 μM. Cells are trypsinized and fixed in ice-cold 100% methanol overnight at 4° C. Cells are washed, stained with propidium iodide (PI) for overnight, and subjected to fluorescence activated cell sorting (FACS) analysis on a FAC Scan flow cytometer (BD PharMingen, USA). Data are analyzed using the WinMID software.
To detect the apoptosis, sub-G1 phase cells were measured. Such cells are usually considered to be the result of apoptotic DNA fragmentation. The DNA is degraded by cellular endonucleases, during apoptosis. Therefore, nuclei of apoptotic cells contain less DNA than nuclei of healthy G0/G1 cells, resulting in a sub-G1 peak in the fluorescent histogram that may be used to determine the relative amount of apoptotic cells.

PC3 cells [3] = assay: PC3 xenograft BALB/c nude mice, intraperitoneal GF with or without caloric restriction; format: in vivo; conditions: i.p. 20 mg/kg normally fed, or 10 mg/kg with caloric restriction, versus control; FIG. 6, p<0.01
Experimental: Four-week-old male BALB/c nude mice from the Experimental Animal Center of Chinese Academy of Science (Shanghai, China) are used in this example. Approximately 1×10^6 PC3 cells suspended in 100 μl of PBS and 100 μl of Matrigel are injected subcutaneously into the right side of the animals. One week later, 28 mice bearing tumors around 50 mm^3 in volume are randomly divided into four groups (n=7 per group): Group 1: Control (normally fed, receiving daily i.p. vehicle), Group 2: Caloric restriction (fed with 70% of their normal food intake, receiving daily i.p. vehicle), Group 3: GF (normally fed, receiving daily i.p. 20 mg/kg of GF), and Group 4: GF+caloric restriction (calorie-restricted mice receiving daily i.p. 10 mg/kg of GF). Mice are administered via intraperitoneal injection of vehicle (control) in a form of solvent (0.5% DMSO, 0.5% Tween-80 in saline) and GF at the dose of 10 mg/kg or 20 mg/kg in 200 μl vehicle once every other day. […] Using the conversion formula between animal dose and human dose taught in Regan-Shaw et al. (2007), the daily human dose of GF through intraperitoneal injection is about 1.62 mg/kg to 2.4 mg/kg (corresponding to 20 mg/kg of GF for mouse); the daily human dose of GF under calorie restriction is at least in a range of 0.81 mg/kg to 1.2 mg/kg (corresponding to 10 mg/kg of GF for mouse).

LNCaP cells [4] = assay: Hoechst 33258 / MitoTracker Red confocal microscopy; format: cell-based, human; conditions: treatment for 12 h or 24 h, laser confocal microscopy
Experimental: Hoechst is depicted as blue in the first column of images while MitoTracker Red is depicted as red in the second column of images; double stain of Hoechst 33258 and MitoTacker Red is shown in the third column of images, in which the dotted square in each image represents the area where the part is enlarged; the corresponding enlarged area of the image from the third column is shown in the fourth column.
LNCaP cells (2×10^5) are seeded on 35 mm culture dish and incubated 24 h to allow attachment. After the different treatment of Guttiferone F for 12 h or 24 h, the medium is removed from the dish and the staining solution (50 μg/ml Hoechst 33258 and 1 ng/ml MitoTracker Red in PBS) is added. The fluorescence of the bound dyes is analyzed using a laser scanning confocal microscope (FV10i, Olympus Corporation, Japan).

PC3 cells [5] = assay: PC3 xenograft nude mouse model B, intraperitoneal injection 10 mg/kg; format: in vivo, nude mice; conditions: intraperitoneal injection 10 mg/kg every two days for 18 days; FIG. 5
Experimental: A total of 1×10^6 PC3 cells suspended in 100 μl of PBS and 100 μl of Matrigel are inoculated subcutaneously into the right flank of […] 4-week-old male nude mice. Drug injections are made once the tumors reach an average volume of about 200 mm^3. Mice are divided randomly into two groups of 7 for each group and subjected to intraperitoneal injection of vehicle or 10 mg/kg Guttiferone F every two days for 18 days. Tumor volume is measured by calipers and calculated by V=L×W^2/2. For intratumoral injection, Guttiferone F is prepared in 5% dimethyl sulfoxide, 5% tween 80, and 90% PBS.

LNCaP = assay: MTT cytotoxic assay, LNCaP; format: cell-based, human
Experimental: as §1, §2

Hep G2 = assay: MTT cytotoxic assay, Hep G2; format: cell-based; conditions: Homo sapiens, HepG2, 48 h of treatment
Experimental: as §1, §2

With C=C(C)[C@H](CC=C(C)C)C[C@@]12C[C@@H](CC=C(C)C)C(C)(C)[C@@](CC=C(C)C)(C(=O)C(C(=O)c3ccc(O)c(O)c3)=C1O)C2=O [Guttiferone F] the “tumor growth (tumor volume)” value (PC3 cells [1]) was “the growth of tumor is inhibited significantly after 14 days”, the IC50 (PC-3) was 12.6 ± 3.01 µM and the IC50 (HeLa) was 13.1 ± 1.32 µM. The “apoptosis (sub-G1 phase cells)” value (LNCaP cells [2]) was “induce LNCaP cell death by apoptosis significantly”, the “tumor growth (tumor volume)” value (PC3 cells [3]) was “tumor growth is significantly less prominent” and the “change in mitochondria and nucleus DNA” value (LNCaP cells [4]) was “DNA fragmentation and mitochondria focus are visualized”. The “tumor growth (tumor volume)” value (PC3 cells [5]) was “the growth of tumor is not inhibited significantly in 18 days”, the IC50 (LNCaP; Homo sapiens, LNCaP, MTT, 48 h of treatment) was 5.17 ± 0.2 µM and the “selectivity between cell lines in MTT assay” value (LNCaP; prostate cancer cell lines versus other cell lines, Table 1) was “more specific to human prostate cancer than the others”. For the same molecule, the IC50 (Hep G2) was 32.9 ± 1.56 µM.
